From patent US7728128B2, “Dibenzo[c,h][1,5]naphthyridines and their use as DNA probes” (Institut National de la Sante et de la Recherche Medicate …, priority 2006, dated 2010)
“And” between values parts separate entries of the source, which are not always exact repeats. Equal values may be shown once.

Tests used:
[1] = system: dA/dT and dG/dC homopolymers; assay: fluorescence and absorption with dA/dT and dG/dC homopolymers; type: binding
Method: (§1) Plasmid dsDNA was purified using a Qiagen Maxiprep kit and used in the supercoiled form for absorption and fluorescence studies. E. coli total RNA was bought from Ambion, dA/dT and dG/dC homopolymers were purchased from Amersham Biosciences. Calf thymus (CT) high-molecular weight DNA and Hoechst 33258 were obtained from Sigma-Aldrich. Ethidium bromide was purchased from Amresco.
(§2) Spectrometry and fluorimetry were performed using a SpectraMax384 (Molecular Devices) and a Luminescence Spectrometer LS50B (Perkin Elmer). Fluorescence emission of compound I in complex with DNA and RNA was measured in 50 mM Na phosphate buffer, pH 7.2 at room temperature. Before use, total E. coli RNA was heated to 100° C. for 1 min and immediately transferred on ice for 5 min before mixing with compound I solution. All measurements were carried out at room temperature (20-23° C.) in solutions protected from light and incubated for ˜10-15 min after dilution. The units of b/dye and bp/dye are defined as moles of RNA bases or DNA base pairs per mole of dye. Quantum yield was measured using quinine sulphate as standard as described in (Iupac Commission on Photochemistry, EPA Newsletter of November 1986, 21-29) using FLUOROMAX-3 Spex Spectrofluorometer (HORIBA) and UVIKON XL Spectrophotometer (SECOMAM).
Many intercalating dyes and minor groove-binding DNA dyes can interact differently with dA/dT or dG/dC DNA tracts. […] To investigate the properties of compound I when bound to different DNA tracts, the inventors examined its fluorescence in admixture with an excess of plasmid DNA and either dA/dT or dG/dC homopolymers. […] The peak at 484 nm was much more pronounced when plasmid DNA was replaced by the dA/dT homopolymers (see also FIG. 1F). […] In FIG. 3C, the graphs show emission spectra upon excitation at 371 nm to allow plotting the emission of free compound I. Similar results were obtained when exciting DNA/compound I complexes at 391 and 435 nm.

[2] = system: plasmid DNA; assay: fluorescence of free molecules before and after addition of plasmid DNA; type: physicochemical; set-up: Fluorescence maxima free dye / Fluorescence maxima DNA bound dye: unit not given beside the values
Method: as §1, §2
(§3) Although compound I also stains mitotic chromosomes (FIG. 1D), theoretically it was possible that it binds specifically to DNA-associated proteins (for example histones) rather than to nucleic acids. To resolve this issue, the absorption and emission spectra of free compound I before and after addition of dsDNA were recorded. […] Molar extinction coefficient (EC) of free compound I at 391 nm was measured at 10,800 cm^−1 M^−1. In the presence of ds plasmid DNA the absorption peaks of compound I at 373 and 391 nm decreased, and a new peak appears with a maximum at 435 nm (FIG. 1E). An overlay of the absorption spectra in complex with dsDNA at different bp per dye ratios gives a single isosbestic point at 398 nm. Free compound I fluoresces around 438 nm (the exact position of the peak depends on the excitation wavelength). […] At the same time, a new peak evolves with a maximum around 484 nm (FIG. 1F). The exact maximum of fluorescence of compound I/DNA complexes varies insignificantly as a function of the dye/bp ratio and/or base pairs composition of the nucleic acids. […] The quantum yield for compound I (excited at 435 nm) at 5 μM in 50 mM Na-phosphate, pH 7.2, was determined to be 2.7% for free dye and 13.8% in admixture with 50 μM CT DNA.
(§4) To get a further insight into how the structural properties of compound I contribute to its binding to DNA, the inventors analysed fourteen structural analogues present in the compound library. Although several of these compounds are fluorescent in vivo, this property went undetected in the initial screen most likely due to the latency period before the appearance of the signal (see below). To evaluate the activity of compound I-like molecules three tests were used: (1) in vivo, the inventors incubated human fibroblasts in the presence of the molecules and scored nuclear fluorescence in the microscope; (2 and 3) in vitro, the inventors looked at the absorption and fluorescence of free molecules before and after addition of plasmid DNA. […] With the exception of compound I and analogues 8 and 12, accurate in vitro measurement of the fluorescence intensities was impossible because the emission peaks for the free molecules were too close to that for the DNA-bound dye. This affected the height of the dye/DNA peaks.

[3] = system: plasmid DNA; assay: absorption of free molecules before and after addition of plasmid DNA; type: physicochemical; set-up: Absorption maxima free dye / Absorption maxima DNA bound dye: unit not given here
Method: as §1, §2, §3, §4

[4] = stability in DMSO; type: physicochemical
Method: Stability of compound I: When stored in the dark in anhydrous DMSO at −25° C., compound I is stable for periods up to 3 years (LC-MS).

[5] = system: Xenopus cells XL177; assay: visual phenotypic screen on live Xenopus cells XL177; type: cell-based
Method: In this study, three different types of cells were used: Xenopus epithelial cell line XL177 (Miller, L. et al., 1977, In Vitro, 13, 557-563) stably transformed with a YFP-α-tubulin expressing construct (pEYFP-Tub, Clontech), mouse fibroblasts, and primary human skin fibroblasts. XL177 cells were grown at 20° C. in 60% Leibowitz-15 medium, supplemented with antibiotics, 10% fetal calf serum (FCS) and 10 mM HEPES, pH 7.2 with addition of 0.7 mg/ml G418. Cells were plated into glass-bottom 96-well plates (Greiner, Germany) and left to spread for 24 hours before being incubated in the presence of the test compounds from the Curie-CNRS small molecule library (at 25 or 50 μM final concentration) for another 20-24 hours. Mouse and human fibroblasts were grown in DMEM with antibiotics and 10% FCS at 37° C. in the presence of 5% CO2. The cells were observed using a Zeiss Axiovert 200M microscope with a 40× oil immersion objective and a standard Alexa488/FITC filter (Omega, XF100-2; Ex475AF40/Em535AF45/Dichroic505). Subsequent experiments were carried out using smaller concentrations of compound I and incubation times as described in the text and figures legends. For the in vivo tests of compound I-like compounds, the molecules were added to cell culture medium at 10 μM final concentration and incubated with cells 10-60 min (up to 24 hours) prior to scoring.
The signal appeared after 10-20 sec illumination and was stable for many minutes thereafter (see below).

[6] = system: CT DNA; assay: quantum yield, free dye and in admixture with CT DNA; type: physicochemical, calf
Method: as §2
Although compound I also stains mitotic chromosomes (FIG. 1D), theoretically it was possible that it binds specifically to DNA-associated proteins (for example histones) rather than to nucleic acids. To resolve this issue, the absorption and emission spectra of free compound I before and after addition of dsDNA were recorded. […] Molar extinction coefficient (EC) of free compound I at 391 nm was measured at 10,800 cm^−1 M^−1. […]

[7] = free molecule, before addition of plasmid DNA

## COc1ccc2c(c1)c(C)nc1c3ccc(OC)cc3c(NCCCN(C)C)nc21 [Compound I, N′-(2,8-dimethoxy-12-methyl-dibenzo[c,h][1,5]naphthyridin-6-yl)-N,N-dimethyl-propane-1,3-diamine]
[1]; 1 μM dye, homopolymer at 40 μM
  reduction of fluorescence peak at 438 nm with dG/dC homopolymer: 12.7 fold
[1]; 1 μM dye, homopolymers at 40 μM
  fluorescence at 484 nm with dG/dC homopolymer, lower compared to dA/dT: 9.5 fold
[1]; dA/dT homopolymers at bp/dye ratio 40
  emission maximum: 484 nm
[1]; dye/bp ratio 8, 5 μM dye, emission 484 nm, excitation 435 nm
  difference in fluorescence bound to dA/dT and dG/dC homopolymers: 23 fold
[1]; higher bp/dye ratios
  absorption at 435 nm, dG/dC superior to dA/dT: ~30%
[2]; DNA-bound
  emission maximum of new peak upon DNA binding: around 484 nm
  hypsochromic shift of the 438 nm emission peak upon DNA binding: 426 nm
[2]; after addition of plasmid DNA
  Fluorescence maxima DNA bound dye: 484
[2]; free compound
  emission peak of free dye: around 438 nm
[2]; [7]
  Fluorescence maxima free dye: 438
[2]; plasmid DNA at bp/dye ratio 40
  emission maximum: 472 nm
[3]; after addition of plasmid DNA
  Absorption maxima DNA bound dye: 435
[3]; complex with dsDNA at different bp per dye ratios
  isosbestic point of absorption spectra: 398 nm
[3]; free compound
  absorption maxima of free dye: 224 nm and 245 nm and 283 nm and 326 nm and 373 nm and 391 nm
[3]; free dye at 391 nm
  Molar extinction coefficient (EC): 10,800 cm^−1 M^−1
[3]; [7]
  Absorption maxima free dye: 394
[3]; in the presence of ds plasmid DNA
  absorption maximum of new peak: 435 nm
[4]; DMSO at 4° C. in the dark
  stability, period stable: stable for at least one year
[4]; DMSO solution, ambient temperature, dark
  stability, period stable: at least 48 hours
[4]; anhydrous DMSO at −25° C., dark (LC-MS)
  stability, period stable: up to 3 years
[5]; Alexa488/FITC filter
  illumination time before nuclear signal appeared: 10 to 20 s
[5]; live cells
  cell membrane permeability: cell-membrane permeant
[5]; standard cell culture conditions
  toxicity in cultured cells: non-toxic under standard cell culture conditions (up to six days in culture)
[6]; free dye, 5 μM, 50 mM Na-phosphate pH 7.2, excited at 435 nm
  quantum yield: 2.7%
[6]; in admixture with 50 μM CT DNA, 5 μM dye, excited at 435 nm
  quantum yield: 13.8%
